Where two headings read alike, the source gives them in different places.
How the values were obtained:
[1] = Serum PFAA concentrations in family members during intermittent phlebotomy (HPLC-MS/MS); type: in vivo, human; conditions: for Serum concentration before treatment: before phlebotomy
Description: After receiving informed consent, intermittent phlebotomy was undertaken at an overall rate (Table 2) that was equal to or less than the maximum rate of what is done for routine blood donations at the Canadian Blood Services: ∼500 ccs of whole blood every 56 days. Frequency and timing of blood removal was not consistent between family members because of their personal availability, success at each time of venesection, and compliance of each participant. […] Mineral supplementation was discussed and was taken by each participant.
All serum samples were submitted to ALS Laboratories (Edmonton, AB) for quantitative analysis of PFAAs (see Supporting Information, S1 Table). Samples were extracted by solid phase extraction and concentrations of PFHxS, PFOS, and PFOA were determined using high performance liquid chromatography/tandem mass spectrometry. Formic acid (0.1 M) along with a mixture of isotopically labeled PFAAs (Wellington Laboratories, Guelph, Ontario) were added to 1.0 mL of serum. The mixture was vortexed, sonicated, and subjected to solid phase extraction. The extract was concentrated to 100 uL and an instrument performance internal standard was added along with 200 uL of 90% 20 mM aqueous acetic acid/10% methanol. Procedural blanks were run with each set of samples, and method limits of quantification (LOQ) were 0.5 ng/mL for each analyte. For the few PFAA levels that fell below this LOQ (shown as hollow circles in Figs. 1–3), LOQ/√2 (i.e. 0.35 ng/mL) was substituted for purposes of data analysis. PFHxS, PFOS, and PFOA levels in all participating family members were >LOQ throughout the intervention except for 3 PFOS measurements out of 16 total measurements in the 3rd child and one PFOA measurement out of 9 total measurements in the […]. Written informed consent was given by participants (or parents in the case of children) for their clinical records to be used in this study.

[2] = Apparent elimination half-life (HLapp) and phlebotomy efficiency coefficient in treated family members; type: in vivo, human; conditions: family members with regular phlebotomy, except parent
Description: To evaluate the effect of phlebotomy, versus the expected rate of intrinsic elimination, we graphically and statistically compared the observed decreasing trends in each family member (fitted to a simple exponential decay model) with reference population elimination kinetics. Specifically, for the reference population of occupationally exposed retirees, we considered: i) the 95% confidence interval of the geometric mean elimination rate for each PFAA, and ii) the fastest individual rate of elimination rate among the reference population. For comparative purposes, the concentration of each PFAA in serum on the first day of the intervention was taken as time zero, and the models were forced through this starting point.
One metric that was calculated to compare the efficiency of the phlebotomy for removal of different PFAAs in each family member was termed the phlebotomy efficiency coefficient (EC). This was based on the subtractive difference between HLapp (yrs) in each treated family member and the geometric mean HLin (yrs) of the reference population according to Equation 1 . [drawing 1] (1)

[3] = parameters: method as in PMID 17805419; conditions: cited from earlier work
[4] = parameters: method as in PMID 23980546; conditions: urinary excretion, China, cited from earlier work
[5] = parameters: method as in earlier work; conditions: 2009–2011; cited from earlier work

## O=S(=O)(O)C(F)(F)C(F)(F)C(F)(F)C(F)(F)C(F)(F)C(F)(F)F [PFHxS, Perfluorohexane sulfonate]
[1]; 1st Child
  Serum concentration before treatment: 78.6 ng/mL
[1]; 1st Child, sampling date 2009.10.12
  Serum concentration: 51.9 ng/mL
[1]; 1st Child, sampling date 2009.12.24
  Serum concentration: 40.5 ng/mL
[1]; 1st Child, sampling date 2009.6.9
  Serum concentration: 78.6 ng/mL
[1]; 1st Child, sampling date 2009.9.9
  Serum concentration: 39.0 ng/mL
[1]; 1st Child, sampling date 2010.10.14
  Serum concentration: 51.9 ng/mL
[1]; 1st Child, sampling date 2010.1.17
  Serum concentration: 30.3 ng/mL
[1]; 1st Child, sampling date 2010.2.11
  Serum concentration: 25.3 ng/mL
[1]; 1st Child, sampling date 2010.4.14
  Serum concentration: 29.9 ng/mL
[1]; 1st Child, sampling date 2011.12.5
  Serum concentration: 10.0 ng/mL
[1]; 1st Child, sampling date 2011.5.17, LOD=0.5ng/mL
  Serum concentration: 31.8 ng/mL
[1]; 1st Child, sampling date 2011.8.12, LOD=0.5ng/mL
  Serum concentration: 27.8 ng/mL
[1]; 1st Child, sampling date 2012.12.28, LOD=0.5ng/mL
  Serum concentration: 21.7 ng/mL
[1]; 1st Child, sampling date 2012.4.24
  Serum concentration: 32.7 ng/mL
[1]; 1st Child, sampling date 2012.8.21
  Serum concentration: 25.1 ng/mL
[1]; 1st Child, sampling date 2013.3.30
  Serum concentration: 18.1 ng/mL
[1]; 1st Child, sampling date 2013.7.30
  Serum concentration: 11.9 ng/mL
[1]; 2nd Child
  Serum concentration before treatment: 140 ng/mL
[1]; 2nd Child, sampling date 2009.10.24
  Serum concentration: 97.5 ng/mL
[1]; 2nd Child, sampling date 2009.6.6
  Serum concentration: 140.0 ng/mL
[1]; 2nd Child, sampling date 2009.7.2
  Serum concentration: 124.0 ng/mL
[1]; 2nd Child, sampling date 2009.7.30
  Serum concentration: 132.0 ng/mL
[1]; 2nd Child, sampling date 2009.8.24
  Serum concentration: 162.0 ng/mL
[1]; 2nd Child, sampling date 2009.9.27
  Serum concentration: 67.2 ng/mL
[1]; 2nd Child, sampling date 2010.1.3
  Serum concentration: 57.9 ng/mL
[1]; 2nd Child, sampling date 2010.2.15
  Serum concentration: 44.7 ng/mL
[1]; 2nd Child, sampling date 2011.10.2
  Serum concentration: 47.4 ng/mL
[1]; 2nd Child, sampling date 2011.12.24
  Serum concentration: 43.2 ng/mL
[1]; 2nd Child, sampling date 2011.4.27
  Serum concentration: 72.3 ng/mL
[1]; 2nd Child, sampling date 2011.8.14
  Serum concentration: 63.0 ng/mL
[1]; 2nd Child, sampling date 2012.12.24
  Serum concentration: 78.7 ng/mL
[1]; 2nd Child, sampling date 2012.4.6
  Serum concentration: 48.3 ng/mL
[1]; 2nd Child, sampling date 2013.5.11.
  Serum concentration: 34.8 ng/mL
[1]; 2nd Child, sampling date 2013.7.15
  Serum concentration: 27.1 ng/mL
[1]; 3rd Child
  Serum concentration before treatment: 293 ng/mL
[1]; 3rd Child, sampling date 2010.3.12
  Serum concentration: 168.0 ng/mL
[1]; 3rd Child, sampling date 2010.5.23
  Serum concentration: 85.2 ng/mL
[1]; 3rd Child, sampling date 2011.1.6
  Serum concentration: 98.7 ng/mL
[1]; 3rd Child, sampling date 2011.11.26
  Serum concentration: 31.2 ng/mL
[1]; 3rd Child, sampling date 2011.2.24
  Serum concentration: 114.0 ng/mL
[1]; 3rd Child, sampling date 2011.4.30
  Serum concentration: 82.8 ng/mL
[1]; 3rd Child, sampling date 2011.6.13
  Serum concentration: 92.0 ng/mL
[1]; 3rd Child, sampling date 2011.9.27
  Serum concentration: 108.0 ng/mL
[1]; 3rd Child, sampling date 2012.10.16
  Serum concentration: 63.9 ng/mL
[1]; 3rd Child, sampling date 2012.1.8
  Serum concentration: 51.0 ng/mL
[1]; 3rd Child, sampling date 2012.12.9
  Serum concentration: 95.4 ng/mL
[1]; 3rd Child, sampling date 2012.3.4
  Serum concentration: 61.5 ng/mL
[1]; 3rd Child, sampling date 2012.4.28
  Serum concentration: 110.0 ng/mL
[1]; 4th Child
  Serum concentration before treatment: 167 ng/mL
[1]; 4th child (4th child)
  starting serum concentration relative to 95th centile among Canadians: ~20 fold
[1]; Average of 6 family members, after phlebotomy
  Serum concentration after treatment: 23.3 ng/mL
[1]; Average of 6 family members
  Serum concentration before treatment: 125 ng/mL
[1]; Parent one
  Serum concentration before treatment: 44.1 ng/mL
[1]; Parent one, sampling date 2009.10.11
  Serum concentration: 20.3 ng/mL
[1]; Parent one, sampling date 2009.10.12
  Serum concentration: 25.0 ng/mL
[1]; Parent one, sampling date 2009.11.12
  Serum concentration: 29.5 ng/mL
[1]; Parent one, sampling date 2009.12.14
  Serum concentration: 35.4 ng/mL
[1]; Parent one, sampling date 2009.2.2
  Serum concentration: 44.1 ng/mL
[1]; Parent one, sampling date 2009.5.18
  Serum concentration: 35.0 ng/mL
[1]; Parent one, sampling date 2009.6.1
  Serum concentration: 41.7 ng/mL
[1]; Parent one, sampling date 2009.7.4
  Serum concentration: 26.8 ng/mL
[1]; Parent one, sampling date 2009.9.1
  Serum concentration: 43.5 ng/mL
[1]; Parent one, sampling date 2010.10.10
  Serum concentration: 22.4 ng/mL
[1]; Parent one, sampling date 2010.1.17
  Serum concentration: 34.5 ng/mL
[1]; Parent one, sampling date 2010.3.13
  Serum concentration: 21.2 ng/mL
[1]; Parent one, sampling date 2011.1.6
  Serum concentration: 19.2 ng/mL
[1]; Parent one, sampling date 2011.11.26
  Serum concentration: 8.7 ng/mL
[1]; Parent one, sampling date 2011.2.24
  Serum concentration: 13.1 ng/mL
[1]; Parent one, sampling date 2011.4.30
  Serum concentration: 18.8 ng/mL
[1]; Parent one, sampling date 2011.6.22
  Serum concentration: 16.9 ng/mL
[1]; Parent one, sampling date 2011.8.4
  Serum concentration: 18.0 ng/mL
[1]; Parent one, sampling date 2011.9.27
  Serum concentration: 25.7 ng/mL
[1]; Parent one, sampling date 2012..12.28
  Serum concentration: 17.4 ng/mL
[1]; Parent one, sampling date 2012.1.14
  Serum concentration: 21.5 ng/mL
[1]; Parent one, sampling date 2012.11.1
  Serum concentration: 19.1 ng/mL
[1]; Parent one, sampling date 2012.3.4
  Serum concentration: 19.5 ng/mL
[1]; Parent one, sampling date 2012.4.29
  Serum concentration: 23.1 ng/mL
[1]; Parent one, sampling date 2012.7.8
  Serum concentration: 18.3 ng/mL
[1]; Parent one, sampling date 2012.8.21
  Serum concentration: 21.7 ng/mL
[1]; Parent one, sampling date 2013.10.27
  Serum concentration: 8.8 ng/mL
[1]; Parent one, sampling date 2013.2.18
  Serum concentration: 15.7 ng/mL
[1]; Parent one, sampling date 2013.3.30
  Serum concentration: 16.0 ng/mL
[1]; Parent one, sampling date 2013.5.11
  Serum concentration: 13.1 ng/mL
[1]; Parent one, sampling date 2013.7.15
  Serum concentration: 7.8 ng/mL
[1]; Parent one, sampling date 2013.9.8
  Serum concentration: 18.2 ng/mL
[1]; Parent two
  Serum concentration before treatment: 29.3 ng/mL
[1]; Parent two, sampling date 2009.6.1
  Serum concentration: 29.3 ng/mL
[1]; Parent two, sampling date 2009.7.7
  Serum concentration: 21.3 ng/mL
[1]; Parent two, sampling date 2009.8.24
  Serum concentration: 19.5 ng/mL
[1]; Parent two, sampling date 2010.1.3
  Serum concentration: 16.3 ng/mL
[1]; Parent two, sampling date 2010.4.11, LOD=0.5ng/mL
  Serum concentration: 17.8 ng/mL
[1]; Parent two, sampling date 2012.3.13
  Serum concentration: 16.1 ng/mL
[1]; Parent two, sampling date 2013.1.1
  Serum concentration: 13.2 ng/mL
[1]; Parent two, sampling date 2013.10.6
  Serum concentration: 13.5 ng/mL
[1]; Parent two, sampling date 2013.6.22
  Serum concentration: 9.1 ng/mL
[2]
  HLapp compared with geometric mean HLin of reference population: significantly shorter
[3]; reference population of occupationally exposed retirees (26 individuals)
  HLin of fastest eliminator in the reference population: 2.2 yrs
[3]; reference population of occupationally exposed retirees
  95% confidence interval of the geometric mean HLin: 5.8–9.2 yrs
[3]; serum, highly contaminated retirees >55 yrs, previously occupationally exposed
  intrinsic human elimination half-life (HLin): 8.5 years
[3]; serum, retirees >55 yrs, previously occupationally exposed
  HLin, 95% confidence interval: 6.4–10.6 yrs
[4]; males and post-menopausal females
  HLapp: 35 years
[4]; reproductive-aged females
  HLapp: 7.7 years
[5]
  95th percentile of serum concentration among Canadians: 8.9 ng/mL

Source: PMC4264749, “Phlebotomy Treatment for Elimination of Perfluoroalkyl Acids in a Highly Exposed Family: A Retrospective Case-Series” (PLoS ONE, 2014)
